Laboratory results from publication PMC6338836, “Structural basis for prodrug recognition by the SLC15 family of proton-coupled peptide transporters” (Proceedings of the National Academy of Sciences of the …, 2019).
Residues, ends and D or L forms follow the SMILES beside them.

How the values were obtained:
[1] = test system: PepTSh N167A; test: IC50 competition assay, PepTSh N167A variant; type: biochemical, Staphylococcus hominis
[2] = target: (UniProt Z9YNX0M2M8); test: IC50 competition assay, PepTSh WT proteoliposomes; type: biochemical, Staphylococcus hominis; conditions: competition for dipeptide uptake
[3] = test system: PepT1; design: method as in PMID 12649372; conditions: cited from earlier work
[4] = test system: PepTSh; test: IC50 competition assay, PepTSh WT proteoliposomes; type: biochemical, Staphylococcus hominis; conditions: for recognition: competition with AlaAla: N- or C-terminally blocked peptides
[5] = test system: PepTSh Y79F; test: IC50 competition assay, PepTSh Y79F variant; type: biochemical, Staphylococcus hominis
[6] = test system: PepTSh Y41F; test: IC50 competition assay, PepTSh Y41F variant; type: biochemical, Staphylococcus hominis; conditions: for IC50: PepTSh variant Y41F
[7] = design: method as in PMID 23264448, PMID 9610386; conditions: cited from earlier work
[8] = test system: PepTSh Y163A; test: IC50 competition assay, PepTSh Y163A variant; type: biochemical, Staphylococcus hominis; conditions: PepTSh Y163 removed (Y163A)
[9] = test system: PepTSh N426A; test: IC50 competition assay, PepTSh N426A variant; type: biochemical, Staphylococcus hominis; conditions: PepTSh N426 removed (N426A)
[10] = test system: PepTSh Y41A; test: IC50 competition assay, PepTSh Y41A variant; type: biochemical, Staphylococcus hominis; conditions: PepTSh Y41 removed (Y41A)
[11] = test system: PepTSh N426L; test: IC50 competition assay, PepTSh N426L variant; type: biochemical, Staphylococcus hominis; conditions: PepTSh N426 replaced with leucine (N426L)

SMILES: NCC(=O)CCC(=O)O [5-aminolevulinic acid]
- effect of variant on affinity / IC50 compared with WT [1]: unchanged
- IC50 [2]: 10400 µM
- IC50 [3]: 2100 µM

SMILES: CC(=O)N[C@@H](C)C(=O)N[C@@H](C)C(=O)O [Ac-AA-OH] (Ac-Ala-Ala-OH)
- recognition: competition with AlaAla [4]: can no longer bind the

SMILES: C[C@H](N)C(=O)N[C@@H](C)C(=O)O [Ala-Ala, dialanine] (H-Ala-Ala-OH)
- effect of variant on transport compared with WT ([5]; PepTSh Y79F): limited effect
- IC50 [6]: 866 µM

SMILES: C[C@H](N)C(=O)N[C@@H](C)C(=O)N[C@@H](C)C(=O)O [Ala-Ala-Ala, trialanine]
- IC50 ([5]; PepTSh variant Y79F): 5.3 µM
- effect of variant on IC50 compared with WT ([6]; PepTSh Y41F): no effect

SMILES: C[C@H](N)C(=O)N[C@@H](C)C(N)=O [H-AA-NH2] (H-Ala-Ala-NH2)
- recognition: competition with AlaAla [4]: can compete with AlaAla

SMILES: Nc1nc2c(ncn2COCCO)c(=O)[nH]1 [acyclovir]
- oral bioavailability [7]: 15%

SMILES: CC(C)[C@H](N)C(=O)OCCOCn1cnc2c(=O)[nH]c(N)nc21 [valacyclovir]
- oral bioavailability [7]: > 50%
- effect of variant on affinity / IC50 compared with WT [1]: little effect on the affinity
- IC50 [6]: 1300 µM
- IC50 ([4]; competition for dipeptide uptake): 7400 µM
- effect of variant on recognition [8]: abrogated valacyclovir recognition
- effect of variant on affinity compared with WT [9]: improved affinity
- effect of variant on affinity compared with WT [10]: little effect on the affinity
- effect of variant on affinity compared with WT [11]: negligible effect
